Patent US20250114486A1, “MARKED FATTY ACID DERIVATIVE, PRECURSOR COMPOUND THEREOF, AND USE THEREOF IN CONTRAST AGENT” (BEIJING NORMAL UNIVERSITY, priority 2022, published 2025)
Values joined by “and” are separate entries in the source; they are usually repeats but may differ in a detail not shown here. Equal entries are not always repeated.

Columns and labels:
[1] = In vivo biodistribution of radioactive ^99mTc complexes in female SD rats; parameters: species or system female Sprague-Dawley (SD) rats; conditions: for Biodistribution: Large Intestine / Biodistribution: Small Intestine / Biodistribution: Stomach: unit % ID
Method: (§1) Female SD rats (180-220 g, n=3) were fasted for 12 h before the experiment, and the purified radioactive 99mTc complexes 78-81 were prepared into physiological saline (containing 10% ethanol) solutions of about 250-350 μCi/mL. 200 μL of the above solution was injected into the tail vein of female SD rats, and the rats were killed by cervical dislocation at five time points, 15, 30, 60, 120 and 240 min after the tail vein injection. The blood, brain, heart, liver, spleen, lung, kidney, muscle, bone, large intestine, small intestine, stomach and tail were collected, weighed and counted, and the count distribution of each tissue and organ was calculated (unit: % ID/g, the unit of large intestine, small intestine and stomach is % ID), and the data are the mean±standard deviation of three mice in each phase. At the same time, 200 μL of the above solution was diluted to 20 mL, which was used as the % ID without deducting the tail count.

[2] = Metabolism study in female SD rats (modified Folch extraction, ^99mTc gamma counting); assay type: in vivo
Method: Female SD rats (180-220 g, fasted overnight) were injected with […] radioactive ^99mTc complex 80 (200-300 μCi, dissolved in 10% EtOH saline, 1000 μL) (n=3) through the tail vein. Heart, intestine and liver samples were collected at 60 min and 120 min after injection. Among them, the SD rats killed at 60 min post-injection were divided into two groups: one group of fasting female SD rats were injected with saline (0.2 mL) solution containing fatty acid β-oxidation inhibitor TMZ (40 mg/kg) and our radiotracer (TMZ-administratied group), and the other group of fasting female SD rats were injected with radioactive ^99mTc complex 80 only (control group). Heart, intestine or liver samples were homogenized in a mixture of CHCl3—CH3OH in a volume ratio of 2:1, then 40% urea and 5% sulfuric acid aqueous solution were added, and they were sonicated and centrifuged at 2000 rpm for 10 min (a modified Folch extraction method). The ^99mTc gamma counting were performed on the resulting aqueous phase, organic phase and residual tissue particle phase (n=3).
In addition, the residual tissue particles obtained from the heart samples were measured for radioactivity counts, then heated and dissolved in 1 mol/L NaOH solution at 90° C. for 1 h, cooled, and then treated with 50% trichloroacetic acid (TCA). After centrifugation at 2000 rpm for 10 min, the obtained supernatant and precipitate were ^99mTc gamma counting.

fatty acid β-oxidation = test: TMZ (trimetazidine hydrochloride) blocking experiment, biodistribution in female SD rats; assay type: in vivo
Method: as §1
Trimetazidine hydrochloride (TMZ) is a widely used anti-anginal drug and an inhibitor of fatty acid β-oxidation. […] Therefore, in order to investigate the sensitivity of radioactive ^99mTc complex 80 to fatty acid β-oxidation, we first performed a TMZ blocking experiment from the perspective of biodistribution. Among them, SD rats killed 60 min after injection were divided into two groups: one group of fasting female SD rats were injected with saline (0.2 mL) solution containing TMZ (40 mg/kg) and our radiotracer ^99mTc complex 80 (TMZ administration group), and the other group of fasting female SD rats were injected with radioactive ^99mTc complex 80 only (control group). The absolute myocardial uptake of the control SD rats and the TMZ-administered SD rats was compared 60 min after the tail vein injection of our radiotracer 80 (corresponding to the time point of the peak absolute myocardial uptake). […] The effect of TMZ administration on the metabolic fate of the radioactive ^99mTc complex 80 will also be discussed in Example 4 below.

[3] = heart in TMZ-administrated SD rats (TMZ 40 mg/kg), 60 min
[4] = heart in control SD rats, 60 min, percentage of total ^99mTc radioactivity counts
[5] = heart in control SD rats, 120 min
[6] = intestine in control SD rats, 60 min
[7] = intestine in control SD rats, 120 min
[8] = liver in control SD rats, 60 min
[9] = liver in control SD rats, 120 min
[10] = female SD rats, 60 min, blocked by trimetazidine hydrochloride (TMZ 40 mg/kg)
[11] = female SD rats, 60 min, blocked by trimetazidine hydrochloride (TMZ 40 mg/kg), unit % ID

**Q.** What does the source list for `COC(C)(C)C[N+]#[C][99Tc-5]([C]#[N+]CC(C)(C)OC)([C]#[N+]CC(C)(C)OC)([C]#[N+]CC(C)(C)OC)([C]#[N+]CC(C)(C)OC)[C]#[N+]CC(C)(C)OCCCCCSCCCCC(=O)O` [^99mTc complex 80]?
**A.** Biodistribution: Large Intestine ([1]; 120 min post-injection): 22.13 ± 2.94 % ID; Biodistribution: Small Intestine ([1]; 120 min post-injection): 5.02 ± 0.82 % ID; Biodistribution: Stomach ([1]; 120 min post-injection): 0.55 ± 0.08 % ID; Biodistribution: Blood ([1]; 240 min post-injection): 0.007 ± 0.001 ID %/g; Biodistribution: Bone ([1]; 240 min post-injection): 0.043 ± 0.003 ID %/g; Biodistribution: Brain ([1]; 240 min post-injection): 0.007 ± 0.002 ID %/g; Biodistribution: Heart ([1]; 240 min post-injection): 0.93 ± 0.09 ID %/g; Biodistribution: Kidney ([1]; 240 min post-injection): 0.49 ± 0.03 ID %/g; Biodistribution: Liver ([1]; 240 min post-injection): 0.17 ± 0.03 ID %/g; Biodistribution: Lungs ([1]; 240 min post-injection): 0.06 ± 0.01 ID %/g; Biodistribution: Muscle ([1]; 240 min post-injection): 0.22 ± 0.02 ID %/g; Biodistribution: Spleen ([1]; 240 min post-injection): 0.06 ± 0.01 ID %/g; Heart-to-Blood ratio ([1]; 240 min post-injection): 141.90±22.86; Heart-to-Liver ratio ([1]; 240 min post-injection): 5.56±1.30; Heart-to-Lungs ratio ([1]; 240 min post-injection): 15.00±3.18; absolute myocardial uptake value ([1]; 240 min post-injection): 0.93±0.09 % ID/g; Biodistribution: Large Intestine ([1]; 240 min post-injection): 22.41 ± 1.13 % ID; Biodistribution: Small Intestine ([1]; 240 min post-injection): 7.36 ± 0.64 % ID; Biodistribution: Stomach ([1]; 240 min post-injection): 0.20 ± 0.02 % ID; absolute myocardial uptake peak value ([1]; peak at 60 min post-injection): 2.06±0.06 % ID/g; decrease of absolute myocardial uptake value ([1]; within 60-240 min post-injection): 54.9%; reduction of residual tissue granular phase proportion, TMZ-treated vs control heart samples ([2]; 60 min after injection, P<0.01): 61%; precipitated ^99mTc radioactivity count as share of residual tissue granular phase ([2]; control SD rat heart, 60 min, dissolved in 1 mol/L NaOH 90° C. 1 h, 50% trichloroacetic acid added): 86.0%; % aqueous fraction [2, 3]: 0.29 ± 0.06%; % organic fraction [2, 3]: 73.11±2.03%; % residual tissue pellet [2, 3]: 26.60±2.09%; % aqueous fraction [2, 4]: 0.50 ± 0.21%; % organic fraction [2, 4]: 31.38±2.48%; % residual tissue pellet [2, 4]: 68.54±3.66% and 68.12 ± 2.69%; % aqueous fraction [2, 5]: 0.53 ± 0.23%; % organic fraction [2, 5]: 33.20 ± 4.56%; % residual tissue pellet [2, 5]: 66.27±34.54% and 66.27 ± 4.54%; % aqueous fraction [2, 6]: 0.54 ± 0.24%; % organic fraction [2, 6]: 38.76 ± 5.69%; % residual tissue pellet [2, 6]: 60.70±5.71%; % aqueous fraction [2, 7]: 1.68 ± 0.44%; % organic fraction [2, 7]: 32.77 ± 3.98%; % residual tissue pellet [2, 7]: 65.55±3.54%; % aqueous fraction [2, 8]: 0.66 ± 0.21%; % organic fraction [2, 8]: 35.30 ± 4.75%; % residual tissue pellet [2, 8]: 64.04±4.90%; % aqueous fraction [2, 9]: 0.85 ± 0.30%; % organic fraction [2, 9]: 31.92 ± 3.83%; % residual tissue pellet [2, 9]: 67.23 ± 4.08%; decrease of absolute myocardial uptake, TMZ-administered vs control SD rats (fatty acid β-oxidation; 60 min post-injection, TMZ 40 mg/kg, P<0.01): 51%; sensitivity to myocardial fatty acid β-oxidation (fatty acid β-oxidation; TMZ blocking, female SD rats): quite sensitive; Biodistribution: Blood (fatty acid β-oxidation; [10]): 0.024 ± 0.003 ID %/g; Biodistribution: Bone (fatty acid β-oxidation; [10]): 0.07 ± 0.01 ID %/g; Biodistribution: Brain (fatty acid β-oxidation; [10]): 0.009 ± 0.005 ID %/g; Biodistribution: Heart (fatty acid β-oxidation; [10]): 1.01 ± 0.19 ID %/g; Biodistribution: Kidney (fatty acid β-oxidation; [10]): 0.97 ± 0.28 ID %/g; Biodistribution: Liver (fatty acid β-oxidation; [10]): 0.51 ± 0.16 ID %/g; Biodistribution: Lungs (fatty acid β-oxidation; [10]): 0.16 ± 0.02 ID %/g; Biodistribution: Muscle (fatty acid β-oxidation; [10]): 0.31 ± 0.06 ID %/g; Biodistribution: Spleen (fatty acid β-oxidation; [10]): 0.10 ± 0.04 ID %/g; Heart-to-Blood ratio (fatty acid β-oxidation; [10]): 41.25 ± 3.12; Heart-to-Liver ratio (fatty acid β-oxidation; [10]): 2.06 ± 0.41; Heart-to-Lungs ratio (fatty acid β-oxidation; [10]): 6.28 ± 0.29; Biodistribution: Large Intestine (fatty acid β-oxidation; [11]): 15.54 ± 6.05 % ID; Biodistribution: Small Intestine (fatty acid β-oxidation; [11]): 16.59 ± 4.32 % ID; Biodistribution: Stomach (fatty acid β-oxidation; [11]): 1.10 ± 0.19 % ID
